Patent US7709444B2, “Echinocandin pharmaceutical formulations containing micelle-forming surfactants” (Pfizer Inc., priority 1999, dated 2010)
*1 amine or outer side, *2 acyl side, *3 side chain or, on linkers, in order; H or OH if unused. Where a SMILES comes first, the peptide text is derived from it. Bridges are numbered along the chain shown (N, C = ends). [ ]: non-standard residue; d: D form. The star is where a group is joined. ξ: configuration not given here. pTerphenylCO(4''-OnC5H11) = CCCCCOc1ccc(-c2ccc(-c3ccc(C(=O)*)cc3)cc2)cc1; ξOrn(4,5-diOH) = O=C(C(CC(O)C(O)N[*:3])N[*:1])[*:2]; ξhTyr(βξ-OH,γξ-OH) = NC(C(=O)O)C(O)C(O)c1ccc(O)cc1; ξPro(3ξ-OH,4ξ-Me) = CC1CNC(C(=O)O)C1O; Hyp = O=C(O)[CH]1C[CH](O)CN1

Tests used:
[1] = Stability of solution formulations, related substances by reverse phase HPLC, storage at 40° C.; format: physicochemical; details: 6(a) 10 mg/ml, Poly 80(25), no buffer
Description: (§1) The stability of solution and freeze-dried formulations was evaluated by monitoring a sample of the formulation for the percent increase in related substances by reverse phase HPLC at initial, 2 weeks and 4 weeks of storage at 40° C.

[2] = Stability of freeze-dried formulations, related substances by reverse phase HPLC, storage at 40° C.; format: physicochemical
Description: as §1

CCCCCOc1ccc(-c2ccc(-c3ccc(C(=O)NC4CC(O)C(O)NC(=O)C5C(O)C(C)CN5C(=O)C(C(C)O)NC(=O)C(C(O)C(O)c5ccc(O)cc5)NC(=O)C5CC(O)CN5C(=O)C(C(C)O)NC4=O)cc3)cc2)cc1 (stereo not drawn) [Compound 6(a)] ({pTerphenylCO(4''-OnC5H11)}-[ξOrn(4,5-diOH)]T[Hyp][ξhTyr(βξ-OH,γξ-OH)]T[ξPro(3ξ-OH,4ξ-Me)]; lactam 1-C; configuration not given here)
Percent Related Substances ([1]; Man(50), 0 wks): 3.68%
Percent Related Substances ([1]; Man(50), 2 wks): 16.65%
Percent Related Substances ([1]; Man(50), 4 wks): 23.68%
Percent Related Substances ([1]; co-solvent 1% PEG 3350, 0 wks): 3.68%
Percent Related Substances ([1]; co-solvent 1% PEG 3350, 2 wks): 21.56%
Percent Related Substances ([1]; co-solvent 40% PEG 400, 0 wks): 3.73%
Percent Related Substances ([1]; co-solvent 40% PEG 400, 2 wks): 15.26%
Percent Related Substances ([1]; co-solvent 40% PEG 400, 4 wks): 23.99%
% Related Substances ([2]; 6(a) Potency 1, Poly 80(25), Cit(1.9), Man(50), 0 wks): 3.22%
% Related Substances ([2]; 6(a) Potency 1, Poly 80(25), Cit(1.9), Man(50), 2 wks): 10.24%
% Related Substances ([2]; 6(a) Potency 1, Poly 80(25), Cit(1.9), Man(50), 4 wks): 12.16%
% Related Substances ([2]; 6(a) Potency 1, Poly 80(25), Cit(9.6), Man(50), 0 wks): 3.36%
% Related Substances ([2]; 6(a) Potency 1, Poly 80(25), Cit(9.6), Man(50), 2 wks): 11.74%
% Related Substances ([2]; 6(a) Potency 1, Poly 80(25), Cit(9.6), Man(50), 4 wks): 18.63%
% Related Substances ([2]; 6(a) Potency 1, Poly 80(25), Cit(19.2), Man(50), 0 wks): 3.37%
% Related Substances ([2]; 6(a) Potency 1, Poly 80(25), Cit(19.2), Man(50), 2 wks): 17.29%
% Related Substances ([2]; 6(a) Potency 1, Poly 80(25), Cit(19.2), Man(50), 4 wks): 22.61%
% Related Substances ([2]; 6(a) Potency 5, Poly 80(12.5), no B, Lac(10), Man(50), 0 wks): 6.42%
% Related Substances ([2]; 6(a) Potency 5, Poly 80(12.5), no B, Lac(10), Man(50), 2 wks): 6.98%
% Related Substances ([2]; 6(a) Potency 5, Poly 80(12.5), no B, Lac(10), Man(50), 4 wks): 6.85%
% Related Substances ([2]; 6(a) Potency 8, Poly 80 (20), no B, Lac(10), Man(50), 0 wks): 5.99%
% Related Substances ([2]; 6(a) Potency 8, Poly 80 (20), no B, Lac(10), Man(50), 2 wks): 6.16%
% Related Substances ([2]; 6(a) Potency 8, Poly 80 (20), no B, Lac(10), Man(50), 4 wks): 5.74%
% Related Substances ([2]; 6(a) Potency 10, Poly 80(25), Cit(9.6), Suc(5), Man(50), 0 wks): 3.70%
% Related Substances ([2]; 6(a) Potency 10, Poly 80(25), Cit(9.6), Suc(5), Man(50), 2 wks): 5.60%
% Related Substances ([2]; 6(a) Potency 10, Poly 80(25), Cit(9.6), Suc(5), Man(50), 4 wks): 6.01%
% Related Substances ([2]; 6(a) Potency 10, Poly 80(25), Cit(9.6), Suc(10), Man(50), 0 wks): 3.77%
% Related Substances ([2]; 6(a) Potency 10, Poly 80(25), Cit(9.6), Suc(10), Man(50), 2 wks): 5.41%
% Related Substances ([2]; 6(a) Potency 10, Poly 80(25), Cit(9.6), Suc(10), Man(50), 4 wks): 5.88%
% Related Substances ([2]; 6(a) Potency 10, Poly 80(25), Cit(9.6), Suc(50), no BA, 0 wks): 3.60%
% Related Substances ([2]; 6(a) Potency 10, Poly 80(25), Cit(9.6), Suc(50), no BA, 2 wks): 5.4%
% Related Substances ([2]; 6(a) Potency 10, Poly 80(25), Cit(9.6), Suc(50), no BA, 4 wks): 6.01%
% Related Substances ([2]; 6(a) Potency 10, Poly 80(25), Cit(9.6), Tre(50), no BA, 0 wks): 3.73%
% Related Substances ([2]; 6(a) Potency 10, Poly 80(25), Cit(9.6), Tre(50), no BA, 2 wks): 4.83%
% Related Substances ([2]; 6(a) Potency 10, Poly 80(25), Cit(9.6), Tre(50), no BA, 4 wks): 6.19%
% Related Substances ([2]; 6(a) Potency 10, Poly 80(25), Tar(1.13), Fru(10), Man(50), 0 wks): 2.49%
% Related Substances ([2]; 6(a) Potency 10, Poly 80(25), Tar(1.13), Fru(10), Man(50), 4 wks): 2.42%
% Related Substances ([2]; 6(a) Potency 10, Poly 80(25), no B, Lac(10), Man(50) (first of two identical lines), 0 wks): 4.56%
% Related Substances ([2]; 6(a) Potency 10, Poly 80(25), no B, Lac(10), Man(50) (first of two identical lines), 2 wks): 4.51%
% Related Substances ([2]; 6(a) Potency 10, Poly 80(25), no B, Lac(10), Man(50) (first of two identical lines), 4 wks): 4.85%
% Related Substances ([2]; 6(a) Potency 10, Poly 80(25), no B, Lac(10), Man(50) (second of two identical lines), 0 wks): 4.06%
% Related Substances ([2]; 6(a) Potency 10, Poly 80(25), no B, Lac(10), Man(50) (second of two identical lines), 2 wks): 5.47%
% Related Substances ([2]; 6(a) Potency 10, Poly 80(25), no B, Lac(10), Man(50) (second of two identical lines), 4 wks): 5.17%
% Related Substances ([2]; 6(a) Potency 10, Poly 80(25), no B, PEG6000(10), Man(50), 0 wks): 4.13%
% Related Substances ([2]; 6(a) Potency 10, Poly 80(25), no B, PEG6000(10), Man(50), 2 wks): 4.47%
% Related Substances ([2]; 6(a) Potency 10, Poly 80(25), no B, PEG6000(10), Man(50), 4 wks): 8.11%
% Related Substances ([2]; 6(a) Potency 10, Poly 80(25), no B, PEG8000(10), Man(50), 0 wks): 3.97%
% Related Substances ([2]; 6(a) Potency 10, Poly 80(25), no B, PEG8000(10), Man(50), 2 wks): 4.23%
% Related Substances ([2]; 6(a) Potency 10, Poly 80(25), no B, PEG8000(10), Man(50), 4 wks): 6.73%
% Related Substances ([2]; 6(a) Potency 10, Poly 80(25), no B, Suc(10), Man(50), 0 wks): 4.26%
% Related Substances ([2]; 6(a) Potency 10, Poly 80(25), no B, Suc(10), Man(50), 2 wks): 4.82%
% Related Substances ([2]; 6(a) Potency 10, Poly 80(25), no B, Suc(10), Man(50), 4 wks): 4.49%
% Related Substances ([2]; 6(a) Potency 10, Poly 80(25), no B, no SA, Man(50), 0 wks): 3.98%
% Related Substances ([2]; 6(a) Potency 10, Poly 80(25), no B, no SA, Man(50), 2 wks): 4.85%
% Related Substances ([2]; 6(a) Potency 10, Poly 80(25), no B, no SA, Man(50), 4 wks): 5.45%
